# Where “and” joins values, the source holds several entries; their conditions need not be identical. Equal entries are not always repeated.
# Tested on: WiDr human colorectal adenocarcinoma
# Assay: WiDr xenograft model: growth of established WiDr human colorectal tumors in athymic nude mice (tumor volume/weight, % T/C, Fa, Combination Index)
# Details: for Fractional Inhibition of Tumor Volume (Fa), Ave. / Tumor Volume, Ave.: group average; for Volume Decrease: vs control
# [1] = Gem 12.5 mg/kg, day 28, one line per animal, listed as Gem
# [2] = Gem 25 mg/kg, day 28, one line per animal, listed as Gem
# [3] = Gem 50 mg/kg, day 28, one line per animal, listed as Gem
# [4] = Day 34, individual animals, hCBE 50
# [5] = Day 34, individual animals, hCBE 500
# [6] = hCBE 50 μg, day 28, one line per animal
# [7] = hCBE 100 μg, day 28, one line per animal
# [8] = huCBE11 50 μg, day 21, listed as hCBE
# Experimental: Therapeutic agents, i.e. LTβR agonist and chemotherapeutic agents, were administered to athymic nude mice who had been implanted with WiDr tumor cells.
# WiDr cells were obtained from the American Type Culture Collection (Manassas, Va.). Cells were grown in vitro in 90% Eagle's Minimum Essential Medium with 2 mM L-glutamine and Earle's Balanced Salt Solution (BSS) adjusted to contain 1.5 g/L sodium bicarbonate, 0.1 mM non-essential amino acids, and 1 mM sodium pyruvate plus 10% fetal bovine serum (FBS) without antibiotics (5% CO2). Bacterial cultures were performed on aliquots of the tumor homogenate preparation that was implanted into the mice to ensure that all cultures were negative for bacterial contamination at both 24 and 48 hours post implant.
# When the tumors measured approximately 5 mm in length by 5 mm in width, mice were randomized to treatment and control groups. Body weight measurements were recorded twice-weekly beginning on Day 0.
# Tumor measurements were determined using Vernier calipers. Tumor size measurements were recorded regularly according to the study, until the termination of the study. The formula to calculate volume for a prolate ellipsoid was used to estimate tumor volume (mm^3) from 2-dimensional tumor measurements: tumor volume (mm^3)=(length×width^2 [L×W^2])÷2. Assuming unit density, volume was converted to weight (i.e., 1 mm^3=1 mg). Tumor growth inhibition was assessed as % T/C, where T is the mean tumor weight of the treatment group and C is the mean tumor weight of the control group. […] Animals were sacrificed accordingly.
# Statistical analysis of the tumor weight measurements was performed according to standard statistical methods. Mean, standard deviation (SD), and standard error of the mean (SEM) were determined for body weight and tumor weight for all dose groups at all assessments.
# Antitumor efficacy was determined by comparing each treatment group's tumor volume with the control group's tumor volume. Mean tumor volume decrease was calculated as the difference between the control group and the treatment group mean tumor volume. The fractional inhibition of tumor volume, i.e., the fraction affected (Fa), was calculated by dividing the treatment group mean tumor volume decrease by the control group mean tumor volume. […] Further statistical analysis was performed accordingly.
compound,measurement,setting,value
"Nc1ccn([C@@H]2O[C@H](CO)[C@@H](O)C2(F)F)c(=O)n1 [Gemcitabine, gemcitabine, reference compound]","Fractional Inhibition of Tumor Volume (Fa), Ave.","Gem 12.5 mg/kg, day 28",0.403
same,"Tumor Volume, Ave.","Gem 12.5 mg/kg, day 28",479.5
same,Individual Fractional Inhibition of Tumor Volume (Fa),[1],0.571 and 0.001 and 0.524 and 0.490 and 0.427 and 0.479 and 0.421 and 0.632 and −0.058 and 0.543
same,Individual Tumor Volumes,[1],344.8 and 802.2 and 382.6 and 409.5 and 459.9 and 418.6 and 465.3 and 295.5 and 849.7 and 367.1
same,"Fractional Inhibition of Tumor Volume (Fa), Ave.","Gem 25 mg/kg, day 28",0.603
same,"Tumor Volume, Ave.","Gem 25 mg/kg, day 28",319.0
same,Individual Fractional Inhibition of Tumor Volume (Fa),[2],0.678 and 0.561 and 0.657 and 0.440 and 0.505 and 0.574 and 0.712 and 0.703 and 0.559 and 0.641
same,Individual Tumor Volumes,[2],258.5 and 352.8 and 275.7 and 450.0 and 397.8 and 342.6 and 230.9 and 238.8 and 354.3 and 288.2
same,"Fractional Inhibition of Tumor Volume (Fa), Ave.","Gem 50 mg/kg, day 28",0.594
same,"Tumor Volume, Ave.","Gem 50 mg/kg, day 28",326.0
same,Individual Fractional Inhibition of Tumor Volume (Fa),[3],0.602 and 0.812 and 0.747 and 0.502 and 0.445 and 0.538 and 0.447 and 0.774 and 0.659 and 0.417
same,Individual Tumor Volumes,[3],319.6 and 151.2 and 203.1 and 400.1 and 446.1 and 370.9 and 444.1 and 181.8 and 274.1 and 468.6
same,Fraction Affected,"Gemcitabine 12.5 mg/kg given separately, day 28",0.403
same,Tumor Volume,"Gemcitabine 12.5 mg/kg, day 28",479.5
same,Volume Decrease,"Gemcitabine 12.5 mg/kg, day 28",323.7
same,Fraction Affected,"Gemcitabine 25 mg/kg given separately, day 28",0.603
same,Tumor Volume,"Gemcitabine 25 mg/kg, day 28",318.9
same,Volume Decrease,"Gemcitabine 25 mg/kg, day 28",484.3
same,Tumor Volume,"Gemcitabine 50 mg/kg, day 28",326.0
same,Volume Decrease,"Gemcitabine 50 mg/kg, day 28",477.2
same,Median Effect Dose,"Gemcitabine combined with huCBE11 (0.568:1), day 28",4.2 mg/kg
same,Median Effect Dose,"Gemcitabine given separately, day 28",16.7 mg/kg
same,Inhibition of tumor growth vs vehicle control,"gemcitabine 12.5 mg/kg, Day 41, separate study",No significant inhibition
same,% T/C,"gemcitabine 25 mg/kg, Days 21 and 28",below 42%
same,Activity by NCI criteria (% T/C of 42 or less),"gemcitabine 50 mg/kg to […], Day 41",inactive
same,% T/C,"gemcitabine 50 mg/kg, Days 17 to 28",below 42%
"huCBE11: humanized anti-LT-β-R agonist antibody (LTβ receptor-activating mAb), described in WO 02/30986",Fa (Fraction Affected),"Day 34, huCBE11 5 ug",0.256
same,Tumor Volume,"Day 34, huCBE11 5 ug",1024.0
same,Volume Decrease,"Day 34, huCBE11 5 ug",352.4
same,Fa (Fraction Affected),"Day 34, huCBE11 50 ug",0.361
same,Tumor Volume,"Day 34, huCBE11 50 ug",880.1
same,Volume Decrease,"Day 34, huCBE11 50 ug",496.3
same,Fa (Fraction Affected),"Day 34, huCBE11 500 ug",0.466
same,Tumor Volume,"Day 34, huCBE11 500 ug",735.6
same,Volume Decrease,"Day 34, huCBE11 500 ug",640.8
same,Median Effect Dose,"Day 34, huCBE11 Given Separately",932.9 µg
same,Median Effect Dose,"Day 34, huCBE11 dose, Combined (0.333:1) with Taxol",19.8 µg
same,Individual Fractional Inhibition of Tumor Volume,[4],0.039 and 0.536 and 0.420 and 0.452 and 0.391 and 0.290 and 0.423 and 0.674 and −0.234 and 0.614
same,Individual Tumor Volumes,[4],1322.2 and 638.5 and 798.8 and 754.3 and 838.2 and 976.8 and 794.0 and 448.6 and 1698.4 and 531.6
same,Individual Fractional Inhibition of Tumor Volume,[5],0.174 and 0.360 and 0.502 and 0.529 and 0.688 and 0.717 and 0.395 and 0.607 and 0.230 and 0.454
same,Individual Tumor Volumes,[5],1136.7 and 881.2 and 685.7 and 648.1 and 430.1 and 389.8 and 832.1 and 541.3 and 1059.8 and 751.2
same,Tumor weight vs vehicle control,"all huCBE11 groups (500, 100, 50 μg), day 42",statistically significantly lower
same,"Fractional Inhibition of Tumor Volume (Fa), Ave.","hCBE 50 μg, day 28",0.442
same,"Tumor Volume, Ave.","hCBE 50 μg, day 28",448.0
same,Individual Fractional Inhibition of Tumor Volume (Fa),[6],0.467 and 0.547 and 0.564 and 0.463 and 0.456 and 0.350 and −0.060 and 0.245 and 0.827 and 0.562
same,Individual Tumor Volumes,[6],428.2 and 363.5 and 350.4 and 431.3 and 437.1 and 521.8 and 851.1 and 606.1 and 138.7 and 352.2
same,"Fractional Inhibition of Tumor Volume (Fa), Ave.","hCBE 100 μg, day 28",0.519
same,"Tumor Volume, Ave.","hCBE 100 μg, day 28",386.1
same,Individual Fractional Inhibition of Tumor Volume (Fa),[7],0.754 and −0.210 and 0.441 and 0.590 and 0.596 and 0.449 and 0.682 and 0.556 and 0.723 and 0.614
same,Individual Tumor Volumes,[7],197.9 and 972.2 and 449.1 and 329.2 and 324.7 and 442.5 and 255.6 and 356.8 and 222.4 and 310.4
same,"Fa (Fraction Affected), group mean","huCBE11 5 μg, day 21",0.265
same,"Tumor Volume, group mean","huCBE11 5 μg, day 21",319.0
same,"Volume Decrease vs control, group mean","huCBE11 5 μg, day 21",115.0
same,Fa,"huCBE11 5 μg, day 28",0.143
same,Tumor Volume,"huCBE11 5 μg, day 28",688.4
same,Volume Decrease,"huCBE11 5 μg, day 28",114.8
same,Inhibition of tumor growth,"huCBE11 5 μg, gemcitabine parallel study",did not significantly inhibit tumor growth
same,Fraction Affected,"huCBE11 50 μg given separately, day 28",0.442
same,% T/C,"huCBE11 50 μg, Day 41",43.5%
same,"Fa (Fraction Affected), group mean","huCBE11 50 μg, day 21",0.383
same,"Tumor Volume, group mean","huCBE11 50 μg, day 21",267.8
same,"Volume Decrease vs control, group mean","huCBE11 50 μg, day 21",166.2
same,"Fa, individual animals",[8],0.607 and 0.437 and 0.466 and 0.590 and 0.298 and 0.605 and 0.179 and −0.015 and 0.415 and 0.247
same,"Tumor volume, individual animals",[8],170.5 and 244.3 and 231.8 and 178.1 and 304.5 and 171.3 and 356.5 and 440.3 and 254.0 and 326.6
same,Tumor Volume,"huCBE11 50 μg, day 28",448.0
same,Volume Decrease,"huCBE11 50 μg, day 28",355.2
same,"Fa (fractional inhibition of tumor volume), group mean","huCBE11 50 μg, day 35",0.437
same,"Fa, individual animals","huCBE11 50 μg, day 35",0.723 and 0.666 and 0.660 and 0.636 and 0.318 and −0.502 and 0.321 and 0.473 and 0.743 and 0.329
same,"Tumor Volume, group mean","huCBE11 50 μg, day 35",633.2
same,"Tumor volume, individual animals","huCBE11 50 μg, day 35",311.9 and 375.4 and 381.9 and 409.6 and 766.4 and 1688.6 and 762.8 and 592.2 and 289.2 and 754.4
same,"Volume Decrease vs control, group mean","huCBE11 50 μg, day 35",490.8
same,"Fa (fractional inhibition of tumor volume), group mean","huCBE11 50 μg, day 44",0.387
same,"Fa, individual animals","huCBE11 50 μg, day 44",0.656 and 0.434 and 0.559 and 0.498 and 0.143 and 0.591 and −0.316 and 0.381 and 0.406 and 0.516
same,"Tumor Volume, group mean","huCBE11 50 μg, day 44",869.7
same,"Tumor volume, individual animals","huCBE11 50 μg, day 44",487.5 and 802.7 and 624.9 and 712.0 and 1216.2 and 580.7 and 1866.3 and 878.7 and 842.6 and 686.0
same,"Volume Decrease vs control, group mean","huCBE11 50 μg, day 44",548.9
same,Fraction Affected,"huCBE11 100 μg given separately, day 28",0.519
same,% T/C,"huCBE11 100 μg, Day 41",40.0%
same,Tumor Volume,"huCBE11 100 μg, day 28",386.1
same,Volume Decrease,"huCBE11 100 μg, day 28",417.1
same,"Fa (fractional inhibition of tumor volume), group mean","huCBE11 100 μg, day 35",0.645
same,"Fa, individual animals","huCBE11 100 μg, day 35",0.762 and 0.814 and 0.781 and 0.739 and 0.750 and 0.344 and 0.593 and 0.696 and 0.119 and 0.848
same,"Tumor Volume, group mean","huCBE11 100 μg, day 35",399.5
same,"Tumor volume, individual animals","huCBE11 100 μg, day 35",267.9 and 208.9 and 245.8 and 293.4 and 281.4 and 737.5 and 457.4 and 341.5 and 990.1 and 171.4
same,"Volume Decrease vs control, group mean","huCBE11 100 μg, day 35",724.5
same,Activity by NCI criteria (% T/C of 42 or less),"huCBE11 100 μg, gemcitabine parallel study",active
same,% T/C,"huCBE11 500 μg and 50 μg groups, days 35 or 38 to 42",< 42%
same,% T/C,"huCBE11 500 μg and 100 μg groups, days 32 to 42",< 42%
same,Activity by NCI criteria,"huCBE11 500 μg, 100 μg, 50 μg, adriamycin parallel study",active
same,% T/C,"huCBE11 500 μg, Days 31 to 45",below 42%
same,"Fa (Fraction Affected), group mean","huCBE11 500 μg, day 21",0.418
same,"Tumor Volume, group mean","huCBE11 500 μg, day 21",252.5
same,"Volume Decrease vs control, group mean","huCBE11 500 μg, day 21",181.5
same,"Fa (fractional inhibition of tumor volume), group mean","huCBE11 500 μg, day 35",0.648
same,"Fa, individual animals","huCBE11 500 μg, day 35",1.000 and 0.750 and 0.305 and 0.758 and 0.522 and 0.756 and 0.672 and 0.670 and 0.307 and 0.736
same,"Tumor Volume, group mean","huCBE11 500 μg, day 35",396.0
same,"Tumor volume, individual animals","huCBE11 500 μg, day 35",0.1 and 280.9 and 781.0 and 272.3 and 537.5 and 273.7 and 368.7 and 370.6 and 778.7 and 296.8
same,"Volume Decrease vs control, group mean","huCBE11 500 μg, day 35",728.0
same,"Fa (fractional inhibition of tumor volume), group mean","huCBE11 500 μg, day 44",0.567
same,"Fa, individual animals","huCBE11 500 μg, day 44",0.930 and 0.334 and 0.624 and 0.765 and 0.669 and 0.538 and 0.285 and 0.489 and 0.488 and 0.545
same,"Tumor Volume, group mean","huCBE11 500 μg, day 44",614.7
same,"Tumor volume, individual animals","huCBE11 500 μg, day 44",99.1 and 944.8 and 534.1 and 333.2 and 469.4 and 655.8 and 1014.0 and 725.3 and 726.2 and 645.6
same,"Volume Decrease vs control, group mean","huCBE11 500 μg, day 44",803.9
same,Activity by NCI criteria (% T/C of 42 or less),"huCBE11, Camptosar parallel study",active
same,Median Effect Dose,"huCBE11 combined with Camptosar (0.555:1), day 21",10.2 µg
same,Median Effect Dose,"huCBE11 combined with Gemcitabine (0.568:1), day 28",7.3 µg
same,Median Effect Dose,"huCBE11 given separately, day 21",2933 µg
same,Median Effect Dose,"huCBE11 given separately, day 28",81.1 µg
